These results are taken from ChEMBL document CHEMBL4619763 (J Nat Prod, 2020).

The subject of series [1] is Rattus norvegicus. Kind of series: In vivo antioxidant activity in Wistar rat model of hypertension-induced oxidative stress assessed as reduction in nitrite level in renal tissue at 0.1 mg/kg, po administered via gavage for 7 days by Griess reagent based assay. In kind it is functional, organism-based.
Series [2] is described as follows: Toxicity in normotensive Wistar rat assessed as changes in plasma sodium level at 0.1 mg/kg, po administered for 7 days. The series is classed as organism-based. The note with it: in vivo, 168 h.
For series [3], the system named is Rattus norvegicus. Kind of series: Diuretic activity in normotensive Wistar rat assessed as urinary chloride excretion at 0.01 mg/kg, ip […] after 8 hrs (reference value: 103.30 +/- 10.25 mmol/L). The series is classed as functional.
The test system of series [4] is Rattus norvegicus. The series is described as follows: Diuretic activity in normotensive Wistar rat assessed as urine pH at 1 mg/kg, po administered via gavage after 8 hrs (reference value: 6.14 to 6.21). In kind it is functional.
The subject of series [5] is Rattus norvegicus. Kind of series: Diuretic activity in normotensive Wistar rat assessed as urinary chloride excretion at 0.1 mg/kg, po administered via gavage after 8 hrs in presence of furosemide (reference value: 135.10 to 143.70 mmol/L). The series is classed as functional.
The subject of series [6] is Rattus norvegicus. Kind of series: Diuretic activity in normotensive Wistar rat assessed as urinary chloride excretion at 0.1 mg/kg, po administered via gavage after 8 hrs in presence of indomethacin (reference value: 135.10 to 143.70 mmol/L). The series is classed as functional.
Series [7] is described as follows: Toxicity in spontaneous hypertensive Wistar rat assessed as changes in plasma uric acid level at 0.1 mg/kg, po administered for 7 days. In kind it is organism-based. The note with it: in vivo, 168 h.
Series [8] is described as follows: Toxicity in spontaneous hypertensive Wistar rat assessed as changes in plasma calcium level at 0.1 mg/kg, po administered for 7 days. The series is classed as organism-based. The note with it: in vivo, 168 h.

The source made the active and inactive calls. No cut-off for these calls is given here.

Take `C[C@@H]1O[C@@H](Oc2c(-c3ccc(O)cc3)oc3cc(O)cc(O)c3c2=O)[C@H](O)[C@H](O)[C@H]1O` [AFZELIN]: the result in the series with Rattus norvegicus [1] was Active. The Activity entry in series [2] is listed as “Non-Toxic”; in the series with Rattus norvegicus [3], 96.18 mmol/L; in the series with Rattus norvegicus [5] it was 154.7 mmol/L; in the series on Rattus norvegicus [6], 284.5 mmol/L; in series [7], “Non-Toxic”; in series [8] it was “Non-Toxic”. The pH in the series with Rattus norvegicus [4] is listed as 6.29.
